Consider 22 molecules from ChEMBL document CHEMBL3792344, “Synthesis, molecular properties prediction and anticancer, antioxidant evaluation of new edaravone derivatives” (Bioorg Med Chem Lett, 2016).

Values after ≈ are worked out from the molar mass of the structure shown.

Data set [1] can be described thus: Cytotoxicity against human PC3 cells assessed as inhibition of cell viability at 25 uM after 48 hrs by MTT assay relative to control. To be noted: PC-3, 48 h. The data set is classed as functional.
A short description of data set [2]: Cytotoxicity against HEK293T cells assessed as inhibition of cell viability at 25 uM after 48 hrs by MTT assay relative to control. To be noted: human, read-out: INH. It counts as cell-based, HEK-293T.
For data set [3], the system named is A549. Kind of data set: Cytotoxicity against human A549 cells assessed as inhibition of cell viability at 25 uM after 48 hrs by MTT assay relative to control. It counts as functional. As to conditions: A549, 48 h.
Data set [4] is described as follows: Antioxidant activity assessed as DPPH free radical scavenging activity incubated for 30 mins in dark condition by spectrophotometric method. It counts as physicochemical.
A short description of data set [5]: Cytotoxicity against HEK293T cells assessed as inhibition of cell viability after 48 hrs by MTT assay. It counts as cell-based. As to conditions: Homo sapiens, HEK-293T.
Data set [6] can be described thus: Cytotoxicity against human PC3 cells assessed as inhibition of cell viability after 48 hrs by MTT assay. To be noted: PC-3, 48 h. The data set is classed as functional, cell-based.

`COc1c(-c2ccc(F)cc2)c(C)nn1-c1ccccc1`: the inhibition at 25 µM in data set [1] was found to be 46.3%; in data set [3] it was 63.9%. In addition, the cytotoxicity at 48 h, 25 µM in data set [2] was found to be 40.9%. For the same molecule, the IC50 in data set [4] turned out to be 35.97 µg/mL (≈ 127 µM).

As for `COc1c(-c2cccc(C)c2)c(C)nn1-c1ccccc1`, the figures for the inhibition at 25 µM in data set [1] and in data set [3] were 59.3% and 85.9%, respectively. The cytotoxicity at 48 h, 25 µM in data set [2] stood at 70.5%. Besides, the IC50 in data set [4] came to 26.4 µg/mL (≈ 94.8 µM).

`COc1c(-c2ccc3ccccc3c2)c(C)nn1-c1ccccc1`: the inhibition at 25 µM in data set [1] is 27.6%; in data set [3] it was 71%. For the same molecule, the cytotoxicity at 48 h, 25 µM in data set [2] came out at 53.6%. Also, in data set [4], the 50% inhibitory concentration (IC50) stood at 53.56 µg/mL (≈ 170 µM).

Consider `COc1ccc(CNC(=O)c2c(C)nn(-c3ccccc3)c2OC)cc1`, for which the inhibition at 25 µM worked out at 34.6% in data set [1] and 60.9% in data set [3]. In addition, the cytotoxicity at 48 h, 25 µM in data set [2] is 44.3%. Moreover, the 50% inhibitory concentration (IC50) in data set [4] was found to be 28.42 µg/mL (≈ 80.9 µM).

In the case of `COc1c(C(=O)NCc2ccc(Cl)cc2)c(C)nn1-c1ccccc1`, the inhibition at 25 µM worked out at 45.8% in data set [1] and 87% in data set [3]. Besides, in data set [2], the cytotoxicity at 48 h, 25 µM stood at 49.4%. In addition, the IC50 in data set [4] came to 16.07 µg/mL (≈ 45.2 µM).

With `O=C1O[C@H]([C@@H](O)CO)C(O)=C1O` [ASCORBIC ACID], in data set [4], the IC50 worked out at 8.09 µg/mL (≈ 45.9 µM).

For the molecule `COCc1ccccc1-c1c(C)nn(-c2ccccc2)c1OC`, the inhibition at 25 µM in data set [1] came to 36%; in data set [3], 80.5%. In data set [2], the cytotoxicity at 48 h, 25 µM is 56.5%. Besides, the half-maximal inhibitory concentration (IC50) in data set [4] was determined as 20.05 µg/mL (≈ 65 µM).

On to `COc1c(Br)c(C)nn1-c1ccccc1`, for which the figures for the inhibition at 25 µM in data set [1] and in data set [3] were 6.38% and 30.8%, respectively. Also, the cytotoxicity at 48 h, 25 µM in data set [2] was 5.96%. For the same molecule, in data set [4], the half-inhibitory concentration (IC50) is 36.96 µg/mL (≈ 138 µM).

On to `COc1c(-c2ccsc2)c(C)nn1-c1ccccc1`, for which the inhibition at 25 µM in data set [1] was found to be 36.6%; in data set [3], 40%. Moreover, in data set [2], the cytotoxicity at 48 h, 25 µM is 22.2%. Further, in data set [4], the IC50 was 30.08 µg/mL (≈ 111 µM).

In the case of `COc1ccc(-c2c(C)nn(-c3ccccc3)c2OC)c(OC)c1`, the inhibition at 25 µM in data set [1] came to 33%; in data set [3] it was 74.7%. In data set [2], the cytotoxicity at 48 h, 25 µM amounted to 48.1%. The concentration for half-maximal inhibition (IC50) in data set [4] turned out to be 38.99 µg/mL (≈ 120 µM).

Turning to `COc1c(-c2ccccc2)c(C)nn1-c1ccccc1`, the values for the inhibition at 25 µM in data set [1] and in data set [3] were 16.2% and 65.7%, respectively. Further, the cytotoxicity at 48 h, 25 µM in data set [2] amounted to 28.2%. Also, in data set [4], the IC50 is 32.2 µg/mL (≈ 122 µM).

On to `COc1c(C(=O)NCc2ccccc2)c(C)nn1-c1ccccc1`, for which the inhibition at 25 µM was found to be 8.71% in data set [1] and 46.7% in data set [3]. In data set [2], the cytotoxicity at 48 h, 25 µM is 22.2%. Moreover, the concentration for half-maximal inhibition (IC50) in data set [4] was found to be 23.63 µg/mL (≈ 73.5 µM).

Turning to `COc1ccc(-c2c(C)nn(-c3ccccc3)c2OC)cc1`, the results for the inhibition at 25 µM in data set [1] and in data set [3] were 24.3% and 70.7%, respectively. In addition, the cytotoxicity at 48 h, 25 µM in data set [2] is 46.3%. Besides, the IC50 in data set [4] came to 24.98 µg/mL (≈ 84.9 µM).

With `COc1c(C(=O)NC(C)c2ccccc2)c(C)nn1-c1ccccc1` (stereo not drawn), the inhibition at 25 µM came out at 29.7% in data set [1] and 52.7% in data set [3]. The cytotoxicity at 48 h, 25 µM in data set [2] is 31.8%. Also, in data set [4], the IC50 was 26.98 µg/mL (≈ 80.4 µM).

As for `COc1cc(C)nn1-c1ccccc1`, the inhibition at 25 µM came out at 5.91% in data set [1] and 55.8% in data set [3]. For the same molecule, in data set [2], the cytotoxicity at 48 h, 25 µM stood at 23%. The 50% inhibitory concentration (IC50) in data set [4] is 49.18 µg/mL (≈ 261 µM).

Turning to `COc1c(-c2ccc(C#N)cc2)c(C)nn1-c1ccccc1`, the inhibition at 25 µM in data set [1] worked out at 30.2%; in data set [3], 54.7%. For the same molecule, in data set [2], the cytotoxicity at 48 h, 25 µM came out at 57.8%. In addition, in data set [4], the IC50 was 41.98 µg/mL (≈ 145 µM).

As to `COc1c(C(=O)O)c(C)nn1-c1ccccc1`, the values for the inhibition at 25 µM in data set [1] and in data set [3] were 3.19% and 22.1%, respectively. In data set [2], the cytotoxicity at 48 h, 25 µM turned out to be 12.1%. Moreover, the IC50 in data set [4] came out at 16.27 µg/mL (≈ 70.1 µM).

Turning to `COc1c(-c2ccc(C)cc2)c(C)nn1-c1ccccc1`, the inhibition at 25 µM turned out to be 18.5% in data set [1] and 44% in data set [3]. Also, in data set [2], the cytotoxicity at 48 h, 25 µM came out at 19.7%. The IC50 in data set [4] amounted to 18.6 µg/mL (≈ 66.8 µM).

Take `COc1c(-c2csc3ccccc23)c(C)nn1-c1ccccc1`: the inhibition at 25 µM in data set [1] came out at 32.4%; in data set [3], 73.5%. For the same molecule, the cytotoxicity at 48 h, 25 µM in data set [2] was 55%. Moreover, the half-maximal inhibitory concentration (IC50) in data set [4] is 50.67 µg/mL (≈ 158 µM).

Consider `COc1cccc2c1C(=O)c1c(O)c3c(c(O)c1C2=O)C[C@@](O)(C(=O)CO)C[C@@H]3O[C@H]1C[C@H](N)[C@H](O)[C@H](C)O1` [DOXORUBICIN], for which the results for the IC50 in data set [5] and in data set [6] were 1.2 µM and 2.1 µM, respectively.

Regarding `COc1c(-c2ccc(O)cc2)c(C)nn1-c1ccccc1`, the inhibition at 25 µM came to 4.9% in data set [1] and 55.9% in data set [3]. In addition, the cytotoxicity at 48 h, 25 µM in data set [2] came to 5.58%. Besides, in data set [4], the 50% inhibitory concentration (IC50) came to 37.03 µg/mL (≈ 132 µM).

As to `CC1=NN(c2ccccc2)C(=O)C1` [EDARAVONE], the inhibition at 25 µM in data set [1] was 1.43%; in data set [3] it was 19.2%. The cytotoxicity at 48 h, 25 µM in data set [2] is 2.4%. The IC50 in data set [4] worked out at 54.4 µg/mL (≈ 312 µM).
